These are literature values, as cited in patent US20250268834A1, “IONIC LIQUID SALTS OF ACTIVE PHARMACEUTICAL INGREDIENTS” (GlaxoSmithKline Consumer Healthcare Holdings (US) LLC, priority 2021, published 2025).

For this series the following is noted: hydrolysis of amide to 4-aminophenol in liquids.

Structures are written as SMILES.

With `CC(=O)Nc1ccc(O)cc1` [APAP, acetaminophen], the “pH with lowest hydrolysis levels of APAP” value is listed as 5-6.
